What is called IC50 is the point on the concentration scale where inhibition reaches its midpoint.

One assay concerns Sprague-Dawley rats. The experiment in a line: Haloperidol-induced catalepsy assay. Type of assay: in vivo, rat. The following applies: for reversal of catalepsy: haloperidol 1.5 mg/kg i.p. On the procedure: Drugs. Compound 1 was weighed and 2% Tween 80/0.5% methylcellulose were placed on top of the compound in serum bottles. This was sonicated for about an hour. All doses were administrated at 10 mL/kg p.o. The final solution is a suspension. Haloperidol was dissolved in 1 mL of 8% lactic acid and taken to 50 mL with sterile water. Haloperidol was dosed at 1 mL/kg i.p.
1. Haloperidol 1.5 mg/kg, i.p.
2. Compound 1, 0.3-3 mg/kg, p.o.
3. Vehicle (2% tween 80/0.5% MC), p.o.
Animals. Male Sprague-Dawley rats weighing between 290-326 grams (Envigo, Inc., Indianapolis, Ind.) were used. They were housed in the animal care facility certified by the American Association for the Accreditation of Laboratory Animal Care (AAALAC) under a 12-hour light/dark cycle (lights on: 7 a.m.; lights off: 7 p.m.) and had free access to food and water. The experimental protocols performed during the light cycle were approved by the Institutional Animals Care and Use Committee of Vanderbilt University and conformed to the guidelines established by the National Research Council Guide for the Care and Use of Laboratory Animals.
Haloperidol-induced catalepsy. Adult male Sprague-Dawley rats are injected with 1.5 mg/kg of haloperidol i.p. Thirty minutes later, the animals are administered 0.3-3 mg/kg of Compound 1 or vehicle. Cataleptic behavior is determined 60 minutes later by placing the forelimbs on a bar raised 6 cm above the table and recording the amount of time it takes for the rat to withdraw the forelimbs with a cutoff of 60 seconds. Data are expressed as mean latency to withdraw ±SEM or percent inhibition of catalepsy ±SEM.
Data Analysis. The data for these dose-response studies were analyzed by a one way analysis of variance. If there was a main effect of dose, then each dose group was compared with each of the other treated groups using GraphPad Prism (version 4.03, GraphPad, La Jolla, Calif.).

In a further assay the target is T1, Human M4 (Homo sapiens, UniProt P08173).
T1 construct: Human or rat M4 cDNA, along with the chimeric G protein Gq,5, were transfected into Chinese hamster ovary (CHO-K1) cells; expressed in transfected cells; host or cells: CHO-K1 (M4/Gqi5/CHO)
T1 sequence (P08173 1-479): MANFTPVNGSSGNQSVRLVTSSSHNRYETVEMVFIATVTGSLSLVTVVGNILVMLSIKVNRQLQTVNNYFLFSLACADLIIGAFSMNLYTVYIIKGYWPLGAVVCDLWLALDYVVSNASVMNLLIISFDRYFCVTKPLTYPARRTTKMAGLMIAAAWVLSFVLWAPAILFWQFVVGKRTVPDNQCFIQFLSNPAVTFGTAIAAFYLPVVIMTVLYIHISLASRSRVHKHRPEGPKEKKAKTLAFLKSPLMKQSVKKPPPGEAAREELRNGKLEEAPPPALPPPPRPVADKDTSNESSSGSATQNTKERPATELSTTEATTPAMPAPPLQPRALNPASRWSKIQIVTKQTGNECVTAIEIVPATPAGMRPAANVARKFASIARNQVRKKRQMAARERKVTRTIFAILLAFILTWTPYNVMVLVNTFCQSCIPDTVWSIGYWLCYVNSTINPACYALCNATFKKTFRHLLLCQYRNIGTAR
Kind of assay: mAChR M4 cell-based functional assay (calcium flux, decrease of EC80 acetylcholine response). Particulars: for Human M4 Emin: % ACh maximum at 30 μM; for IC50: CHO-K1 cells with human M4 and Gqi5, EC80 acetylcholine. Put shortly: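 CHO-K1 cells stably co-expressing M4 with chimeric Gqi5, loaded with Fluo-4 AM for 50 min at 37 °C; compounds added as 10-point 1:3 curves, then acetylcholine at EC20 (143 s) and EC80 (268 s). Calcium read by FDSS fluorescence ratio; IC50 from four-parameter fit of decrease in EC80 acetylcholine response.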
In general terms: A change in cytosolic calcium serves as a functional read-out for many receptors and channels.

Take `Fc1cc(F)c(F)c(-c2ccc(N[C@H]3C[C@@H]4CN(CC5CCOCC5)C[C@@H]4C3)nn2)c1` [Compound 1, (3aR,5s,6aS)-2-((tetrahydro-2H-pyran-4-yl)methyl)-N-(6-(2,3,5-trifluorophenyl)pyridazin-3-yl)octahydrocyclopenta[c]pyrrol-5-amine]: the “reversal of cataleptic behavior” value in the assay with Sprague-Dawley rats (0.3 mg/kg) is on record as 26.2 0/0. For the same compound, the reversal of catalepsy in the assay with Sprague-Dawley rats (1 mg/kg p.o., rat, p<0.01) turned out to be 50.9%; in the assay on Sprague-Dawley rats (3 mg/kg p.o., rat, p<0.001), 65.2%. Besides, the “latency to withdraw (forelimbs) compared to vehicle treated control animals” value with Sprague-Dawley rats (0.3-3 mg/kg p.o., rat, F3,36=8.7 p<0.001) is “significantly reduced”. Also, the “Human M4 Emin” value on Human M4 came to 4%. In addition, the IC50 at Human M4 turned out to be 10.5 nM.
Regarding `Fc1cc(F)c(F)c(-c2ccc(N[C@H]3C[C@@H]4CN(Cc5ccccn5)C[C@@H]4C3)nn2)c1` [Compound 2, (3aR,5s,6aS)-2-(pyridin-2-ylmethyl)-N-(6-(2,3,5-trifluorophenyl)pyridazin-3-yl)octahydrocyclopenta[c]pyrrol-5-amine], at Human M4, the “Human M4 Emin” value worked out at 4% and the half-inhibitory concentration (IC50) is 21.1 nM.

Values taken from patent US20230150986A1, “ANTAGONISTS OF THE MUSCARINIC ACETYLCHOLINE RECEPTOR M4” (Vanderbilt University, priority 2019, published 2023).
